Experimental data: patent US11793852B2, “Application of Longhu Rendan in preparing medicament for preventing and/or treating liver fibrosis” (Shanghai Zhonghua Pharmaceutical Co., Ltd, priority 2017, dated 2023)

How the values were obtained:
[1] = tested on: mice with liver fibrosis induced by CCl4; test: Pathological indicators (HE, Sirius Red, α-SMA immunohistochemical staining of livers) in mice with liver fibrosis induced by CCl4; format: in vivo; settings: silybin 70 mg/kg/d, 6 weeks
Procedure: (§1) Experimental animals: SPF grade C57 mice, 8-week old, half male and half female, supplied by Guangdong Medical Lab Animal Center, housed in an animal room in a barrier environment (SPF grade), and feeds and water and libitum. Certificate [SCXK(YUE) 2013-0002].
(§2) Administration: 32 pills of Longhu Rendan were placed in a mortar and ground, dissolved in 20 mL of 0.5% CMC-Na, pipetted into a 50-mL centrifuge tube, vortexed to be completely dissolved, and made up to 32 mL (solution A). Six 5-ml EP tubes were charged with the solution A per 3 mL/tube (namely, daily dosage for a high-dose group). Another 50-mL tube was charged with 9 ml of the solution A, added with 9 mL 0.5% CMC-Na, and mixed uniformly; and six 5-ml EP tubes were charged with the solution per 3 mL/tube (namely, daily dosage for a medium-dose group). Another 50-mL centrifuge tube was charged with 4.5 ml of the solution A, added with the 0.5% CMC-Na solution to 18 mL, and mixed uniformly; and six 5-ml EP tubes were charged with the solution per 3 mL/tube (namely, daily dosage for a low-dose group). Continue for 6 weeks, 6×32 pills=192 pills in total, about 4 boxes.
Formulation of silybin: one 50-mL centrifuge tube was added with 10 to 12 mL of 0.5% CMC-Na, charged with 4 capsules, dissolved, made up to 20 mL with 0.5% CMC-Na, and mixed uniformly. Six 5-ml EP tubes were charged with the solution per 3 mL/tube (namely, daily dosage). Continue for 6 weeks, 6×4 capsules=24 capsules in total, about 2 boxes.
[…] healthy KM mice were randomly divided into 6 groups with 8 mice/group. Namely: a blank control group, a CCl4 model group, a silybin positive control group, and low, medium, and high dose groups of Longhu Rendan. All groups received a normal diet. […]
HE staining, Sirius Red staining, and smooth muscle actin protein α-SMA immunohistochemical staining. Positive staining areas of Sirius Red staining and immunohistochemical staining were calculated by the ImageJ software, data was processed and plotted by GraphPadPrism, and t-test analysis was performed, where P<0.05 was considered statistically significant.

[2] = tested on: mice with liver fibrosis induced by CCl4; test: Serological indicators (serum AST and ALT activity) in mice with liver fibrosis induced by CCl4; format: in vivo; settings: silybin 70 mg/kg/d, gastric perfusion, 6 weeks; compared to the CCl4 group, P<0.05
Procedure: as §1
as §2, with “boxes. […]” for “boxes.”
After fasting for 12 h, the eyeballs were removed and blood was taken and serum was separated. ALT and AST activities were determined by alanine aminotransferase (ALT) and aspartate aminotransferase (AST) kits.

COc1cc(C2Oc3cc([C@H]4Oc5cc(O)cc(O)c5C(=O)[C@@H]4O)ccc3OC2CO)ccc1O (stereo partly shown) [silybin]
degree of fibrosis (Sirius Red staining of mouse livers) [1]: significantly improve the degree of fibrosis | degree of fibrosis (α-SMA immunohistochemical staining of mouse livers) [1]: significantly improve the degree of fibrosis | inflammatory infiltration and liver injury (HE staining of mouse livers) ([1]; compared to the CCl4 model group): improved at different degrees | serum AST activity [2]: significantly reduced
